Results from article PMC9501633, “Synthesis, Characterisation and Mechanism of Action of Anticancer 3-Fluoroazetidin-2-ones” (Pharmaceuticals, 2022).
Values joined by “and” are separate entries in the source; they are usually repeats but may differ in a detail not shown here. Equal values may be shown once. Read-outs that look alike come from different tables or passages of the source.

Key:
NCI 60 cell line panel = experiment: NCI 60 cell line screen, whole panel; type: cell-based; conditions: for MG-MID TGI / GI50 / CC50: 48 h; for GI50: read-out: MG-MID GI50
Experimental: The antiproliferative effects of selected compounds 33, 37 and 43 were initially evaluated in the NCI 60 cell line screen at 10 μM concentration (see Supplementary Materials Table S3). […] . […] .
Compound 33 was next selected for evaluation in the NCI 60 cell line five-dose screen. The GI50 (50% growth inhibition), TGI (total growth inhibition) and LC50 (50% lethal concentration) were determined in the NCI panel of 60 cell lines, using the sulphorhodamine B (SRB) protein assay (Table 5). The GI50 value provides the growth inhibition of the selected compound, while the cytotoxic effect is evaluated in the LC50 value. […] . […] . Glioblastoma is an aggressive and fast-growing brain tumour with a median survival time of 9–16 months from diagnosis, and these tumours quickly evolve resistance to temozolomide chemotherapy, which is the only FDA-approved treatment. […] . Further mechanistic and cellular studies were carried out and are described below.
(§1) aData obtained from NCI in vitro human tumour cell screen 1 dose assay (10 µM). 33 (NCI

PC-3 = experiment: NCI 60 cell line screen, Prostate; type: cell-based, human
786–0 = experiment: NCI 60 cell line screen, Renal; type: cell-based, human
U251 = experiment: NCI 60 cell line screen, CNS; type: cell-based, human
SF-268 = experiment: NCI 60 cell line screen, CNS; type: cell-based, human
HCT-15 = experiment: NCI 60 cell line screen, Colon; type: cell-based, human
UACC-257 = experiment: NCI 60 cell line screen, Melanoma; type: cell-based, human
SN12C = experiment: NCI 60 cell line screen, Renal; type: cell-based, human
NCI/ADR-RES = experiment: NCI 60 cell line screen, Ovarian; type: cell-based, human
SK-MEL-28 = experiment: NCI 60 cell line screen, Melanoma; type: cell-based, human
SF-295 = experiment: NCI 60 cell line screen, CNS; type: cell-based, human
HT29 = experiment: NCI 60 cell line screen, Colon; type: cell-based, human
T-47D = experiment: NCI 60 cell line screen, Breast; type: cell-based, human
K-562 = experiment: NCI 60 cell line screen, Leukaemia; type: cell-based, human
MDA-MB-468 = experiment: NCI 60 cell line screen, Breast; type: cell-based, human
SNB-19 = experiment: NCI 60 cell line screen, CNS; type: cell-based, human
leukaemia panel = experiment: NCI 60 cell line one-dose screen, panel mean; type: cell-based; conditions: Homo sapiens, one dose 10 μM, read-out: mean growth inhibition
Experimental: The antiproliferative effects of selected compounds 33, 37 and 43 were initially evaluated in the NCI 60 cell line screen at 10 μM concentration (see Supplementary Materials Table S3).
as §1

KM12 = experiment: NCI 60 cell line screen, Colon; type: cell-based, human
SR = experiment: NCI 60 cell line screen, Leukaemia; type: cell-based, human
NCI-H322M = experiment: NCI 60 cell line screen, NSCLung; type: cell-based, human
NCI-H522 = experiment: NCI 60 cell line screen, NSCLung; type: cell-based, human
OVCAR-3 = experiment: NCI 60 cell line screen, Ovarian; type: cell-based, human
CCRF-CEM = experiment: NCI 60 cell line screen, Leukaemia; type: cell-based, human
TK-10 = experiment: NCI 60 cell line screen, Renal; type: cell-based, human
A549/A TCC = experiment: NCI 60 cell line screen, NSCLung; type: cell-based, human
OVCAR-4 = experiment: NCI 60 cell line screen, Ovarian; type: cell-based, human
MOLT-4 = experiment: NCI 60 cell line screen, Leukaemia; type: cell-based, human
SK-MEL-2 = experiment: NCI 60 cell line screen, Melanoma; type: cell-based, human
IGROV1 = experiment: NCI 60 cell line screen, Ovarian; type: cell-based, human
HL-60(TB) = experiment: NCI 60 cell line screen, Leukaemia; type: cell-based, human
MALME-3M = experiment: NCI 60 cell line screen, Melanoma; type: cell-based, human
[1] = 5-dose assay, mean-graph midpoint
[2] = Homo sapiens, 60 cell, 5-dose assay, mean-graph midpoint

**Q.** Which results are given for COc1ccc(/C=C\c2cc(OC)c(OC)c(OC)c2)cc1O [CA-4, combretastatin A-4, reference compound]?
**A.** MG-MID TGI (NCI 60 cell line panel; [1]): 10300 nM; GI50 (NCI 60 cell line panel; [2]): 99 nM

**Q.** What does the source list for COc1ccc(C2C(F)C(=O)N2c2cc(OC)c(OC)c(OC)c2)cc1F (stereo not drawn) [Compound 33, 3-Fluoro-4-(3-fluoro-4-methoxyphenyl)-1-(3,4,5-trimethoxyphenyl)azetidin-2-one]?
**A.** TGI (PC-3; 5-dose, 48 h): >100000 nM; GI50 (PC-3; Homo sapiens, 5-dose, 48 h): 42 nM; inhibition at 10 µM (PC-3; Homo sapiens, one dose 10 µM): 76.9%; Growth % (PC-3; one dose 10 µM): 23.13%; Growth % (786–0; 786-0, one dose 10 µM): 22.92%; TGI (786–0; 786–0, 5-dose, 48 h): 15100 nM; inhibition at 10 µM (786–0; Homo sapiens, 786-0, one dose 10 µM): 77.1%; GI50 (786–0; Homo sapiens, 786–0, 5-dose, 48 h): 46.2 nM; TGI (U251; 5-dose, 48 h): >100000 nM; GI50 (U251; Homo sapiens, U-251, 5-dose, 48 h): 23.6 nM; inhibition at 10 µM (U251; Homo sapiens, U-251, one dose 10 µM): 88.1%; Growth % (U251; one dose 10 µM): 11.86%; TGI (SF-268; 5-dose, 48 h): >100000 nM; GI50 (SF-268; Homo sapiens, 5-dose, 48 h): 324 nM; inhibition at 10 µM (SF-268; Homo sapiens, one dose 10 µM): 66.9%; Growth % (SF-268; one dose 10 µM): 33.13%; TGI (HCT-15; 5-dose, 48 h): >100000 nM; GI50 (HCT-15; Homo sapiens, 5-dose, 48 h): 66.4 nM; inhibition at 10 µM (HCT-15; Homo sapiens, one dose 10 µM): 86.4%; Growth % (HCT-15; one dose 10 µM): 13.63%; TGI (UACC-257; 5-dose, 48 h): >100000 nM; GI50 (UACC-257; Homo sapiens, 5-dose, 48 h): > 100000 nM; inhibition at 10 µM (UACC-257; Homo sapiens, one dose 10 µM): 61.3%; Growth % (UACC-257; one dose 10 µM): 38.74%; TGI (SN12C; 5-dose, 48 h): >100000 nM; GI50 (SN12C; Homo sapiens, 5-dose, 48 h): 482 nM; inhibition at 10 µM (SN12C; Homo sapiens, one dose 10 µM): 66.7%; Growth % (SN12C; one dose 10 µM): 33.29%; GI50 (NCI/ADR-RES; 5-dose, 48 h): 42.4 nM; TGI (NCI/ADR-RES; 5-dose, 48 h): >100000 nM; GI50 (NCI/ADR-RES; Homo sapiens, 48 h, 5-dose): 42 nM; inhibition at 10 µM (NCI/ADR-RES; Homo sapiens, one dose 10 µM): 91.6%; Growth % (NCI/ADR-RES; one dose 10 µM): 8.4%; TGI (SK-MEL-28; 5-dose, 48 h): >100000 nM; GI50 (SK-MEL-28; Homo sapiens, 5-dose, 48 h): 15800 nM; inhibition at 10 µM (SK-MEL-28; Homo sapiens, one dose 10 µM): 42.3%; Growth % (SK-MEL-28; one dose 10 µM): 57.74%; TGI (SF-295; 5-dose, 48 h): >100000 nM; GI50 (SF-295; Homo sapiens, 5-dose, 48 h): 53.5 nM; inhibition at 10 µM (SF-295; Homo sapiens, one dose 10 µM): 81.4%; Growth % (SF-295; one dose 10 µM): 18.61%; TGI (HT29; 5-dose, 48 h): >100000 nM; GI50 (HT29; Homo sapiens, HT-29, 5-dose, 48 h): 134 nM; inhibition at 10 µM (HT29; Homo sapiens, HT-29, one dose 10 µM): 96.3%; Growth % (HT29; one dose 10 µM): 3.73%; TGI (T-47D; 5-dose, 48 h): >100000 nM; inhibition at 10 µM (T-47D; Homo sapiens, T47D, one dose 10 µM): 25.1%; Growth % (T-47D; one dose 10 µM): 74.94%; GI50 (K-562; 5-dose, 48 h): 38.3 nM; TGI (K-562; 5-dose, 48 h): >100000 nM; GI50 (K-562; Homo sapiens, K562, 48 h, 5-dose, 48 h): 38 nM; inhibition at 10 µM (K-562; Homo sapiens, K562, one dose 10 µM): 90.5%; Growth % (K-562; one dose 10 µM): 9.45%; GI50 (MDA-MB-468; Homo sapiens, 5-dose, 48 h): 106 nM; inhibition at 10 µM (MDA-MB-468; Homo sapiens, one dose 10 µM): 77%; Growth % (MDA-MB-468; one dose 10 µM): 23%; TGI (SNB-19; 5-dose, 48 h): >100000 nM; GI50 (SNB-19; Homo sapiens, 5-dose, 48 h): 302 nM; inhibition at 10 µM (SNB-19; Homo sapiens, one dose 10 µM): 66%; Growth % (SNB-19; one dose 10 µM): 34.05%; inhibition at 10 µM (leukaemia panel): 90.6%; TGI (KM12; 5-dose, 48 h): >100000 nM; GI50 (KM12; Homo sapiens, 5-dose, 48 h): 59.6 nM; inhibition at 10 µM (KM12; Homo sapiens, one dose 10 µM): 89.3%; Growth % (KM12; one dose 10 µM): 10.73%; TGI (SR; 5-dose, 48 h): >100000 nM; GI50 (SR; Homo sapiens, 5-dose, 48 h): 40.8 nM; inhibition at 10 µM (SR; Homo sapiens, one dose 10 µM): 86.7%; Growth % (SR; one dose 10 µM): 13.28%; TGI (NCI-H322M; 5-dose, 48 h): >100000 nM; GI50 (NCI-H322M; Homo sapiens, 5-dose, 48 h): 1630 nM; inhibition at 10 µM (NCI-H322M; Homo sapiens, one dose 10 µM): 53.5%; Growth % (NCI-H322M; one dose 10 µM): 46.45%; GI50 (NCI-H522; 5-dose, 48 h): 38.3 nM; TGI (NCI-H522; 5-dose, 48 h): >100000 nM; GI50 (NCI-H522; Homo sapiens, NCI-H522, 48 h, 5-dose, 48 h): 38 nM; inhibition at 10 µM (NCI-H522; Homo sapiens, one dose 10 µM): 108%; Growth % (NCI-H522; one dose 10 µM): -8.46%; TGI (OVCAR-3; 5-dose, 48 h): 492 nM; GI50 (OVCAR-3; Homo sapiens, 5-dose, 48 h): 46.5 nM; inhibition at 10 µM (OVCAR-3; Homo sapiens, one dose 10 µM): 104%; Growth % (OVCAR-3; one dose 10 µM): -4.18%; TGI (CCRF-CEM; 5-dose, 48 h): >100000 nM; GI50 (CCRF-CEM; Homo sapiens, 5-dose, 48 h): 47.1 nM; inhibition at 10 µM (CCRF-CEM; Homo sapiens, one dose 10 µM): 86.8%; Growth % (CCRF-CEM; one dose 10 µM): 13.16%; TGI (TK-10; 5-dose, 48 h): >100000 nM; GI50 (TK-10; Homo sapiens, 5-dose, 48 h): 38600 nM; inhibition at 10 µM (TK-10; Homo sapiens, one dose 10 µM): 35.6%; Growth % (TK-10; one dose 10 µM): 64.4%; TGI (A549/A TCC; 5-dose, 48 h): >100000 nM; GI50 (A549/A TCC; Homo sapiens, 5-dose, 48 h): 394 nM; inhibition at 10 µM (A549/A TCC; Homo sapiens, one dose 10 µM): 84.7%; Growth % (A549/A TCC; one dose 10 µM): 15.33%; MG-MID TGI (NCI 60 cell line panel; [1]): 52480 nM and 52400 nM; GI50 (NCI 60 cell line panel; [1]): 223 nM; GI50 (NCI 60 cell line panel; [2]): 224 nM; inhibition at 10 µM (NCI 60 cell line panel; Homo sapiens, 60 cell, one dose 10 μM, mean over the 60 cell lines, read-out: mean growth inhibition): 76.3%; CC50 (NCI 60 cell line panel; Homo sapiens, 60 cell, 5-dose assay, mean-graph midpoint, read-out: MG-MID LC50): 95500 nM; CC50 (NCI 60 cell line panel; Homo sapiens, all cell lines except COLO 205 and SK-MEL-5, 5-dose, read-out: LC50 (the source's name)): > 100000 nM; mean Growth % (NCI 60 cell line panel; one dose 10 µM, mean over the cell lines): 23.66%; TGI (OVCAR-4; 5-dose, 48 h): >100000 nM; GI50 (OVCAR-4; Homo sapiens, 5-dose, 48 h): 966 nM; inhibition at 10 µM (OVCAR-4; Homo sapiens, one dose 10 µM): 45.1%; Growth % (OVCAR-4; one dose 10 µM): 54.92%; TGI (MOLT-4; 5-dose, 48 h): 93400 nM; GI50 (MOLT-4; Homo sapiens, 5-dose, 48 h): 146 nM; inhibition at 10 µM (MOLT-4; Homo sapiens, one dose 10 µM): 80.3%; Growth % (MOLT-4; one dose 10 µM): 19.7%; TGI (SK-MEL-2; 5-dose, 48 h): >100000 nM; GI50 (SK-MEL-2; Homo sapiens, 5-dose, 48 h): 303 nM; inhibition at 10 µM (SK-MEL-2; Homo sapiens, one dose 10 µM): 41.2%; Growth % (SK-MEL-2; one dose 10 µM): 58.83%; TGI (IGROV1; 5-dose, 48 h): >100000 nM; GI50 (IGROV1; Homo sapiens, IGROV-1, 5-dose, 48 h): 94.6 nM; inhibition at 10 µM (IGROV1; Homo sapiens, IGROV-1, one dose 10 µM): 68.1%; Growth % (IGROV1; one dose 10 µM): 31.88%; TGI (HL-60(TB); 5-dose, 48 h): 399 nM; GI50 (HL-60(TB); Homo sapiens, 5-dose, 48 h): 80.5 nM; inhibition at 10 µM (HL-60(TB); Homo sapiens, one dose 10 µM): 115%; Growth % (HL-60(TB); one dose 10 µM): -14.69%; TGI (MALME-3M; 5-dose, 48 h): >100000 nM; inhibition at 10 µM (MALME-3M; Homo sapiens, one dose 10 µM): 26%; Growth % (MALME-3M; one dose 10 µM): 74.02%
